Experimental data as given in ChEMBL document CHEMBL6120987, “Identification of inhibitors targeting the FLT3-ITD mutation through 4D-QSAR, in vitro, and in silico” (Eur J Med Chem, 2025).

Columns and labels:
MOLM-13 = assay: Antiproliferative activity against FLT3-dependent human MOLM-13 cells expressing FLT3 ITD mutant assessed as reduction in cell viability incubated for 72 hrs by luminescence based assay; assay type: functional; conditions: MOLM-13, 72 h
[1] = target: T1, Receptor-type tyrosine-protein kinase FLT3 (Homo sapiens, UniProt P36888, ITD); assay: Inhibition of FLT3-ITD mutant (unknown origin)
[2] = target: T1, Receptor-type tyrosine-protein kinase FLT3; assay: Inhibition of FLT3-ITD mutant (unknown origin) using biotin-tagged TK substrate preincubated for 10 mins followed by substrate and ATP addition and measured after 40 mins by ADP-Glo Kinase Assay

T1 sequence (P36888 whole entry, looked up, stated change not applied): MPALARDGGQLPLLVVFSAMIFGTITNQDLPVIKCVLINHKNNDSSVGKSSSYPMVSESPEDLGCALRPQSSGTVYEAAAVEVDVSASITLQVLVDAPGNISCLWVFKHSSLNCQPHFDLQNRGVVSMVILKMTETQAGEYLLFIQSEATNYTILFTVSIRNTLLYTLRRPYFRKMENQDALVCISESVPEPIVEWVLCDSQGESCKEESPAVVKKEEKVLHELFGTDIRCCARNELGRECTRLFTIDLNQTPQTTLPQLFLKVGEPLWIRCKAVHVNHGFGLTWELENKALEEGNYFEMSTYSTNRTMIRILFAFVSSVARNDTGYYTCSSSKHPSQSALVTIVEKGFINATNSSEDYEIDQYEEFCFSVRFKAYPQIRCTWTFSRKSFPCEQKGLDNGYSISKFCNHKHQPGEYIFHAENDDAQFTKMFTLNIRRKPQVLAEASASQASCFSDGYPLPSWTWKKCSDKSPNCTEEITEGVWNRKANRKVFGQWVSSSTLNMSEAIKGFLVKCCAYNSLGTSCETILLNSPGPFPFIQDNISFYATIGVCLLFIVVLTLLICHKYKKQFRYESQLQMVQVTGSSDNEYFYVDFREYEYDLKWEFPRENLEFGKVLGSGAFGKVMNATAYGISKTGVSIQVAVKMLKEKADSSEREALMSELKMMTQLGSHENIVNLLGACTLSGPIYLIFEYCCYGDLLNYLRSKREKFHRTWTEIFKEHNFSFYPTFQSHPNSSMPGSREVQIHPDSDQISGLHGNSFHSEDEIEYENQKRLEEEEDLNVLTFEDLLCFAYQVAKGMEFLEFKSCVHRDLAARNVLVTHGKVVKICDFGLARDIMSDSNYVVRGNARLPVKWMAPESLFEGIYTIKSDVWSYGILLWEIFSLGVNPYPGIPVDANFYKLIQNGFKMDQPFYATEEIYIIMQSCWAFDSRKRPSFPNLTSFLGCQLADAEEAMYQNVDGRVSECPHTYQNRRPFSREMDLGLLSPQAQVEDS

## CCc1nc(C(N)=O)c(Nc2ccc(N3CCN(C(=O)C4c5ccccc5-c5ccccc54)CC3)c(OC)c2)nc1NC1CCOCC1
MOLM-13
  IC50: 0.142 µM

## CCCCCCCC/C=C\CCCCCCCC(=O)O [OLEIC ACID]
[1]
  IC50: 0.511 µM

## CCc1nc(C(N)=O)c(Nc2ccc(N3CCN(C(=O)C45C6C7C4C4C5C6C74C(=O)OC)CC3)c(OC)c2)nc1NC1CCOCC1 (stereo not given)
MOLM-13
  IC50: 0.111 µM

## CCc1nc(C(N)=O)c(Nc2ccc(N3CCC(NC(=O)C4c5ccccc5-c5ccccc54)CC3)c(OC)c2)nc1NC1CCOCC1
MOLM-13
  IC50: 0.147 µM

## CCc1nc(C(N)=O)c(Nc2ccc(N3CCN(C(=O)C4CC5C=CC4C5)CC3)c(OC)c2)nc1NC1CCOCC1 (stereo not given)
[2]
  IC50: 0.00129 µM
MOLM-13
  IC50: 0.0634 µM

## CCc1nc(C(N)=O)c(Nc2ccc(N3CCC(N4CCN(C(=O)C56C7C8C5C5C6C7C85C(=O)OC)CC4)CC3)c(OC)c2)nc1NC1CCOCC1 (stereo not given)
[2]
  IC50: 0.00212 µM
MOLM-13
  IC50: 0.0256 µM

## COc1cc(N)ccc1N1CCC(N2CCN(C(=O)OC(C)(C)C)CC2)CC1
[1]
  IC50: 0.511 µM

## CCc1nc(C(N)=O)c(Nc2ccc(N3CCC(NC(=O)C45C6C7C4C4C5C6C74C(=O)OC)CC3)c(OC)c2)nc1NC1CCOCC1 (stereo not given)
[2]
  IC50: 0.0061 µM
MOLM-13
  IC50: 0.0874 µM

## CCc1nc(C(N)=O)c(Nc2ccc(N3CCC(N4CCN(C(=O)C5CC6C=CC5C6)CC4)CC3)c(OC)c2)nc1NC1CCOCC1 (stereo not given)
[2]
  IC50: 0.00483 µM
MOLM-13
  IC50: 0.0546 µM

## CCc1nc(C(N)=O)c(Nc2ccc(N3CCC(N4CCN(C(=O)C5c6ccccc6-c6ccccc65)CC4)CC3)c(OC)c2)nc1NC1CCOCC1
MOLM-13
  IC50: 0.154 µM

## CCCCCCCC/C=C\CCCCCCCC(=O)N1CCN(c2ccc(Nc3nc(NC4CCOCC4)c(CC)nc3C(N)=O)cc2OC)CC1
MOLM-13
  IC50: 2.44 µM

## CCc1nc(C(N)=O)c(Nc2ccc(N3CCC(NC(=O)C45CC6CC(CC(C6)C4)C5)CC3)c(OC)c2)nc1NC1CCOCC1
MOLM-13
  IC50: 0.992 µM

## CCc1nc(C(N)=O)c(Nc2ccc(N3CCN(C(=O)OC(C)(C)C)CC3)c(OC)c2)nc1NC1CCOCC1
[1]
  IC50: 0.37 µM

## CCc1nc(C(N)=O)c(Nc2ccc(N3CCC(N4CCN(C)CC4)CC3)c(OC)c2)nc1NC1CCOCC1 [GILTERITINIB]
MOLM-13
  IC50: 0.0224 µM

## CC(C)(C)OC(=O)N1CCNCC1
[1]
  IC50: 0.56 µM

## CCCCCCCC/C=C\CCCCCCCC(=O)NC1CCN(c2ccc(Nc3nc(NC4CCOCC4)c(CC)nc3C(N)=O)cc2OC)CC1
MOLM-13
  IC50: 0.745 µM

## CCc1nc(C(N)=O)c(Nc2ccc(N3CCC(N4CCN(C(=O)C56CC7CC(CC(C7)C5)C6)CC4)CC3)c(OC)c2)nc1NC1CCOCC1
MOLM-13
  IC50: 0.188 µM

## CCCCCCCC/C=C\CCCCCCCC(=O)N1CCN(C2CCN(c3ccc(Nc4nc(NC5CCOCC5)c(CC)nc4C(N)=O)cc3OC)CC2)CC1
MOLM-13
  IC50: > 10 µM

## CCc1nc(C(N)=O)c(Nc2ccc(N3CCC(NC(=O)C4CC5C=CC4C5)CC3)c(OC)c2)nc1NC1CCOCC1 (stereo not given)
[2]
  IC50: 0.00306 µM
MOLM-13
  IC50: 0.055 µM

## CCc1nc(C(N)=O)c(Nc2ccc(N3CCN(C(=O)C45CC6CC(CC(C6)C4)C5)CC3)c(OC)c2)nc1NC1CCOCC1
MOLM-13
  IC50: 1.34 µM
